The assay addresses T1, Vitamin K epoxide reductase complex subunit 1 (Bos taurus, UniProt Q6B4J2).
T1 sequence (Q6B4J2 whole entry): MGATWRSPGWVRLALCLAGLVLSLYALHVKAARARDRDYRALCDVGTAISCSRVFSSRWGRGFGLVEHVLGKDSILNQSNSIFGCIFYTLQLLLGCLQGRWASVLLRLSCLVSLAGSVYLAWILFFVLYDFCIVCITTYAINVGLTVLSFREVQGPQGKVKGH
Description: Inhibitory concentration against beef liver Vitamin K epoxide reductase (vitamin K 2,3-epoxide reductase).

This is an account of results in ChEMBL document CHEMBL1145261, “Design and synthesis of novel diphenacoum-derived, conformation-restricted vitamin K 2,3-epoxide reductase inhibitors” (Bioorg Med Chem Lett, 2005).

Molecules are shown by their SMILES.

`O=c1oc2ccccc2c(O)c1C1CC(c2ccc(-c3ccccc3)cc2)Oc2ccccc21` (configuration not stated) had a concentration for half-maximal inhibition (IC50) of 40 nM. On to `O=c1oc2ccccc2c2c1C1CC(c3ccc(-c4ccccc4)cc3)(Oc3ccccc31)O2` (configuration not stated), for which it took 1000 nM to reach half-maximal inhibition (IC50).

As usually defined, the IC50 is the concentration that gives 50% inhibition. Read a low IC50 as inhibition by little substance.
